The assay deals with T1, α-glucosidase type 1 from S. cerevisiae (Sigma G5003).
T1 construct: gene MAL12; commercial enzyme preparation from yeast (Sigma-Aldrich)
Briefly: 4-nitrophenyl alpha-D-glucopyranoside hydrolysis, absorbance […] nm. Format: biochemical, Saccharomyces cerevisiae. The following applies: PNPG substrate; phosphate buffer pH 6.5; room temperature; 5 min preincubation; positive control.

With `O=c1c(O)c(-c2ccc(O)c(O)c2)oc2cc(O)cc(O)c12` [Quercetin], the “α-glucosidase inhibitory activity, IC50 (μg mL^- 1)” value came out at 110.50 ± 4.30 µg/mL.
